# Measured values: patent US20080293686A1, “SEMI-SOLID SYSTEMS CONTAINING AZETIDINE DERIVATIVES” (AVENTIS PHARMA S.A., priority 2003, published 2008)
# Assays:
# [1] = Solubility of compound (Ic) in lipids and other pharmaceutical cosolvents; format: physicochemical; details: in Soyabean oil
# From the text: The first step was to determine the solubility of compound (Ic) in an exhaustive series of lipids and other pharmaceutical cosolvents including vegetable oils, lipidic components, surfactants, hydrophilic components and phospholipids. The protocol of the solubility measurement is reported in the annex.
# [2] = Colloidal stability and self-emulsifying properties after incubation with simulated gastrointestinal fluids and filtration; format: physicochemical; details: diluted 1:50, 2 hours at 37° C., theoretical concentration 200 μg/ml
# Method: The following simulated media were selected for the present experiment: • Gastric medium USP, pH 1.2 • Fasted intestinal medium, pH 6.8 (ref. Dressman et al., Pharm. Res., 1998) • Fed intestinal medium, pH 5 (ref. Dressman et al., Pharm. Res., 1998)
# All Compound (Ic) formulations (400 mg) were diluted 1:50 in the gastric, fasted intestinal or fed intestinal medium (20 ml), then incubated during 2 hours at 37° C. under mechanical stirring (300 rpm). The drug concentration was determined by HPLC before and after filtration (2 μm).
# The aim of this second part of the study was to evaluate the colloidal stability and the self-emulsifying properties of the emulsion/microemulsion/micellar solution of the (Ic) formulation after incubation in the GI media. Thus, the sample was filtered onto 2 μm (able to retain oil droplets >2 μm, as well as drug crystals >2 μm) then dosed by HPLC. The filter size (2 μm) has been chosen after a screening with different filter sizes (0.45, 2 and 5 μm) tested on the aqueous solution of the drug. […] In summary, the filtered fraction was approximately 1% in the gastric medium, 2% in the fasted intestinal medium, 4.5-5.5% in the fed intestinal medium.
smiles,measurement,setting,value
CS(=O)(=O)C(=C1CN(C(c2ccc(Cl)cc2)c2ccc(Cl)cc2)C1)c1cc(F)cc(F)c1 [Compound (Ic)],solubility,[1],31.8 mg/mL
same,Compound (Ic) recovered after filtration (2 μm) after previous incubation with GI media,[2]; Fasted intestinal pH 6.8,4.2 µg/mL
same,Compound (Ic) recovered after filtration (2 μm) after previous incubation with GI media,[2]; Fed intestinal pH 5,8.8 µg/mL
same,Compound (Ic) recovered after filtration (2 μm) after previous incubation with GI media,[2]; Gastric medium,1.9 µg/mL
